{"source": "patent US10555986B2", "about": "“Dietary supplement derived from natural prodcuts by hot melt extrusion (HME) processing” (INSTITUTO DE CAPACITACIÓN E INVESTIGACIÓN DEL PLÁS, priority 2017, dated 2020)", "key": {"[1]": {"assay": "release profile of (−)-Epicatechin in artificial saliva at pH 6.2 and 23° C.", "type": "physicochemical", "details": "artificial saliva pH 6.2, 23° C.", "procedure": "FIG. 20 describes the release profile of (−)-Epicatechin in artificial saliva at pH 6.2 and 23° C. for examples X to XIII with a particle size distribution between 250 μm and 425 μm (Mesh 40).\nFIG. 21 illustrates the release profile of (−)-Epicatechin in artificial saliva at pH 6.2 and 23° C. for EXAMPLE X to XIII with a particle size distribution between 180 μm and 250 μm (Mesh 60)."}, "[2]": {"assay": "release profile of (−)-Epicatechin, 2 hour in medium pH 1.2 and 2 more hours in medium pH 6.8, at 37° C.", "type": "physicochemical", "procedure": "Releases for EXAMPLES I TO V.\nFIG. 22 features release profile of (−)-Epicatechin at 2 hour in a medium with pH of 1.2 and 2 more hours in a medium with pH of 6.8, at 37° C. Releases for examples X to XIII with a particle size distribution between 250 μm and 425 μm (Mesh 40); and particle size distribution between 180 μm and 250 μm (Mesh 60)."}, "[3]": {"details": "background statement; cited from earlier work"}, "[4]": {"details": "after permanent coronary occlusion; background statement; cited from earlier work"}, "[5]": {"details": "relative to mannitol; background statement; cited from earlier work"}}, "data": [{"smiles": "Oc1cc(O)c2c(c1)O[C@H](c1ccc(O)c(O)c1)[C@H](O)C2", "note": "[EPICATECHIN AT 90%, (−)-Epicatechin (2R,3R)]", "values": [{"measurement": "% release", "setting": "[1]; 30 s", "result": 75.30, "unit": "%"}, {"measurement": "release profile percentages", "setting": "[1]; 30 s, Table 13", "result": 75.30, "unit": "%"}, {"measurement": "release profile percentages", "setting": "[1]; 30 s, Table 14", "result": 75.30, "unit": "%"}, {"measurement": "% release", "setting": "[1]; 60 s", "result": 88.70, "unit": "%"}, {"measurement": "release profile percentages", "setting": "[1]; 60 s, Table 13", "result": 88.70, "unit": "%"}, {"measurement": "release profile percentages", "setting": "[1]; 60 s, Table 14", "result": 88.70, "unit": "%"}, {"measurement": "% release", "setting": "[1]; 120 s", "result": 93.43, "unit": "%"}, {"measurement": "release profile percentages", "setting": "[1]; 120 s, Table 13", "result": 93.43, "unit": "%"}, {"measurement": "release profile percentages", "setting": "[1]; 120 s, Table 14", "result": 93.43, "unit": "%"}, {"measurement": "% release", "setting": "[2]; 1 h, medium pH 1.2, 37° C.", "result": 98.59, "unit": "%"}, {"measurement": "release profile percentages", "setting": "[2]; 1 h, medium pH 1.2, 37° C., Table 13", "result": 98.59, "unit": "%"}, {"measurement": "release profile percentages", "setting": "[2]; 1 h, medium pH 1.2, 37° C., Table 14", "result": 98.59, "unit": "%"}, {"measurement": "% release", "setting": "[2]; 2 h, medium pH 1.2, 37° C.", "result": 99.94, "unit": "%"}, {"measurement": "release profile percentages", "setting": "[2]; 2 h, medium pH 1.2, 37° C., Table 13", "result": 99.94, "unit": "%"}, {"measurement": "release profile percentages", "setting": "[2]; 2 h, medium pH 1.2, 37° C., Table 14", "result": 99.94, "unit": "%"}, {"measurement": "% release", "setting": "[2]; 3 h, 2 h pH 1.2 then medium pH 6.8, 37° C.", "result": 100.22, "unit": "%"}, {"measurement": "release profile percentages", "setting": "[2]; 3 h, 2 h pH 1.2 then pH 6.8, 37° C., Table 13", "result": 100.22, "unit": "%"}, {"measurement": "release profile percentages", "setting": "[2]; 3 h, 2 h pH 1.2 then pH 6.8, 37° C., Table 14", "result": 100.22, "unit": "%"}, {"measurement": "% release", "setting": "[2]; 4 h, 2 h pH 1.2 then medium pH 6.8, 37° C.", "result": 100.84, "unit": "%"}, {"measurement": "release profile percentages", "setting": "[2]; 4 h, 2 h pH 1.2 then pH 6.8, 37° C., Table 13", "result": 100.84, "unit": "%"}, {"measurement": "release profile percentages", "setting": "[2]; 4 h, 2 h pH 1.2 then pH 6.8, 37° C., Table 14", "result": 100.84, "unit": "%"}, {"measurement": "oral bioavailability", "setting": "[3]", "result": "less than 5%"}, {"measurement": "reduction in scar (infarct) size", "setting": "[4]", "result": "approximately 33%"}, {"measurement": "quenches OH more effectively than mannitol", "setting": "[5]", "result": 100, "unit": "times"}]}]}
